According to ChEMBL document CHEMBL5291721, “A preclinical secondary pharmacology resource illuminates target-adverse drug reaction associations of marketed drugs” (Nat Commun, 2023):

Columns and labels:
Melanocortin receptor 4 = Melanocortin receptor 4 (Homo sapiens, UniProt P32245)
[1] = target: Sodium-dependent dopamine transporter (Homo sapiens, UniProt Q01959)
Adenosine receptor A1 = target: T1, Adenosine receptor A1 (Homo sapiens, UniProt P30542)
T1 sequence (P30542 whole entry): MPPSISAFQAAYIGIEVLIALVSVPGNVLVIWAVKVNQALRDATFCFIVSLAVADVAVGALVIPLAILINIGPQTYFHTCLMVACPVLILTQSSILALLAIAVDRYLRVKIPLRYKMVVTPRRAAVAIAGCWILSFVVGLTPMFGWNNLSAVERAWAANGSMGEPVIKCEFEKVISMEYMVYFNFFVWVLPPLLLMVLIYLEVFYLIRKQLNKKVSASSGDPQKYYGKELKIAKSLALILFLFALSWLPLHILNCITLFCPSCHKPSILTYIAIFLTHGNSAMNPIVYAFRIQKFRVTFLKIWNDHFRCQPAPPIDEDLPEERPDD

[2] = target: T2, 5-hydroxytryptamine receptor 2C (Homo sapiens, UniProt P28335)
T2 sequence (P28335 whole entry): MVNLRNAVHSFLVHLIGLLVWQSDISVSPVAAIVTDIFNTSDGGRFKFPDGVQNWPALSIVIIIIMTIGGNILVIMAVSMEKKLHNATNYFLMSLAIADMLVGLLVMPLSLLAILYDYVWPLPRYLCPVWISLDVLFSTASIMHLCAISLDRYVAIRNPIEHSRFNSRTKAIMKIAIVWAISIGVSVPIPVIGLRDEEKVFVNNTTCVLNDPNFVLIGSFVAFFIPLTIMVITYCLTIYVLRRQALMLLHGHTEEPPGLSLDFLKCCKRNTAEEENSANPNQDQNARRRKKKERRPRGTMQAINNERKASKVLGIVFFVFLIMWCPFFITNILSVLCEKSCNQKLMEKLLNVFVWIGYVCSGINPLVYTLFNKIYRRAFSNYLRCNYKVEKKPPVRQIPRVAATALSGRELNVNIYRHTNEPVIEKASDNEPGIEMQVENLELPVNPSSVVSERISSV

[3] = target: T3, Alpha-2A adrenergic receptor (Homo sapiens, UniProt P08913); assay type: functional, cell-based
T3 sequence (P08913 whole entry): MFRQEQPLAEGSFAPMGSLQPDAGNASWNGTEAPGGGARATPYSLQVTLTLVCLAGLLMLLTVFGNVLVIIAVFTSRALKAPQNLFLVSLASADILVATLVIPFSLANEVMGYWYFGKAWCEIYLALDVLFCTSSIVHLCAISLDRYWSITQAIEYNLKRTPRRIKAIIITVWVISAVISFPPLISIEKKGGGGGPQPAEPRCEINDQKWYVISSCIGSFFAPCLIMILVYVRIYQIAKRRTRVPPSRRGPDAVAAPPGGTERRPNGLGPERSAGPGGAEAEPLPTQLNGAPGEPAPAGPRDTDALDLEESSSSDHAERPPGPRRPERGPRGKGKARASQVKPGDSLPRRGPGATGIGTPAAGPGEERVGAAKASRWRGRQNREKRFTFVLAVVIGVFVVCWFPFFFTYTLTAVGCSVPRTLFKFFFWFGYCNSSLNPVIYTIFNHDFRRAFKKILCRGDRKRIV

Cannabinoid receptor 1 = Cannabinoid receptor 1 (Homo sapiens, UniProt P21554); assay type: functional, cell-based
[4] = target: T4, Amine oxidase [flavin-containing] A (Homo sapiens, UniProt P21397); assay type: functional
T4 sequence (P21397 whole entry): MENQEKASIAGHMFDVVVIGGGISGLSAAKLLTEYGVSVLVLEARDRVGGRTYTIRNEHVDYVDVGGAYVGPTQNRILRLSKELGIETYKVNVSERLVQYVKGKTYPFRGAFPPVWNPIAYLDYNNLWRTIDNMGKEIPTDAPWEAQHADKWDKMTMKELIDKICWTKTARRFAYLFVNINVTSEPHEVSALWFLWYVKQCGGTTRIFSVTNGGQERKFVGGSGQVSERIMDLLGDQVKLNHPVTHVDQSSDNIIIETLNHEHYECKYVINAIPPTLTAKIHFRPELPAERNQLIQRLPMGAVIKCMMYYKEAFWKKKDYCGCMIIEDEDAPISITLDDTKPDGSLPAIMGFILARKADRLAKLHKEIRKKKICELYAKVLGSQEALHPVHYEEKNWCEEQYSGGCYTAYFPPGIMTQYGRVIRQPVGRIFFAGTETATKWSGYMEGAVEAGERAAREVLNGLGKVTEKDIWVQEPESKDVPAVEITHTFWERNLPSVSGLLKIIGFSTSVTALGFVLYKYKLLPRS

[5] = target: Voltage-dependent L-type calcium channel subunit alpha-1C (Rattus norvegicus, UniProt P22002); assay type: functional
[6] = target: 5-hydroxytryptamine receptor 2B (Homo sapiens, UniProt P41595); assay type: functional, cell-based
[7] = target: T5, Alpha-1A adrenergic receptor (Homo sapiens, UniProt P35348); assay type: functional, cell-based
T5 sequence (P35348 whole entry): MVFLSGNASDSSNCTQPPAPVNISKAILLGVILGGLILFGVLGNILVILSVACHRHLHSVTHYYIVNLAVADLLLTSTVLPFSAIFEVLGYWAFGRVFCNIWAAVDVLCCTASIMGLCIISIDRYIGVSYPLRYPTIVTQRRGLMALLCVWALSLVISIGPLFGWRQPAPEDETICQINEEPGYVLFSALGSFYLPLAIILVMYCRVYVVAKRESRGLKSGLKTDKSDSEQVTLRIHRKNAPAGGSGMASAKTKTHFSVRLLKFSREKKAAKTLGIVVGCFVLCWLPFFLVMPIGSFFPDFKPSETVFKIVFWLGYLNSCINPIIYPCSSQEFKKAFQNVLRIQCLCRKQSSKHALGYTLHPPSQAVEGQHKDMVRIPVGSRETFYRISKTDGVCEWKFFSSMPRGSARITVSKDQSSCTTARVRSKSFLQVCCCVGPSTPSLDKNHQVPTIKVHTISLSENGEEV

[8] = target: Growth hormone secretagogue receptor type 1 (Homo sapiens, UniProt Q92847)
Histamine H2 receptor = Histamine H2 receptor (Homo sapiens, UniProt P25021); assay type: functional, cell-based
[9] = target: cGMP-inhibited 3',5'-cyclic phosphodiesterase 3A (Homo sapiens, UniProt Q14432); assay type: functional
[10] = target: Neuronal acetylcholine receptor subunit alpha-4 (Homo sapiens, UniProt P43681)
[11] = target: T5, Alpha-1A adrenergic receptor
Also: assay procedure not described here.

Sequence of Growth hormone secretagogue receptor type 1 (Q92847 whole entry): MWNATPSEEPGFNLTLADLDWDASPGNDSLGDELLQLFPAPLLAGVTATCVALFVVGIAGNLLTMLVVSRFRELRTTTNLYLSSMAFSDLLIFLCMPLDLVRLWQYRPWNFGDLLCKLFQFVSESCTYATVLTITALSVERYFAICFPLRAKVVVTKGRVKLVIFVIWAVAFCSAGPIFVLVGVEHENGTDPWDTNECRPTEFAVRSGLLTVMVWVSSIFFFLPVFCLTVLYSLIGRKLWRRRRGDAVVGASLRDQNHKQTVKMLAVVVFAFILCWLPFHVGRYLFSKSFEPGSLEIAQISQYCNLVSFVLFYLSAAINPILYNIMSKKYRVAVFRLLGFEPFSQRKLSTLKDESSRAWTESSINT
Sequence of Sodium-dependent dopamine transporter (Q01959 whole entry): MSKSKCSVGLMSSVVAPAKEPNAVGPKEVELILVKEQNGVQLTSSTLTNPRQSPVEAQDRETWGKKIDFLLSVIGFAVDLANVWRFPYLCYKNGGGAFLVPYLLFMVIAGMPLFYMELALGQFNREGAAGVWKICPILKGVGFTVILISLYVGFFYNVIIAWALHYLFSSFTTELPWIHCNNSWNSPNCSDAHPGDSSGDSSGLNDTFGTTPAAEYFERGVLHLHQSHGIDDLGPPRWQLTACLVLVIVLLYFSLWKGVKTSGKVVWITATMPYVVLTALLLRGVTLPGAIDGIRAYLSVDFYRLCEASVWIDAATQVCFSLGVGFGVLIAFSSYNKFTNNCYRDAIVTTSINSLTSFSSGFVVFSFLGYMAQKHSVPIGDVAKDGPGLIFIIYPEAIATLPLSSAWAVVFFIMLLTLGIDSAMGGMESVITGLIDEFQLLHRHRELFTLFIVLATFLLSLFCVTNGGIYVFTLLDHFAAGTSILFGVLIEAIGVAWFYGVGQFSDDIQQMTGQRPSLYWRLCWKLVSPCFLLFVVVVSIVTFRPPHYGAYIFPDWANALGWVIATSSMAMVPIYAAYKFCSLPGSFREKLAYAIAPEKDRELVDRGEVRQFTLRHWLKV
Sequence of Neuronal acetylcholine receptor subunit alpha-4 (P43681 whole entry): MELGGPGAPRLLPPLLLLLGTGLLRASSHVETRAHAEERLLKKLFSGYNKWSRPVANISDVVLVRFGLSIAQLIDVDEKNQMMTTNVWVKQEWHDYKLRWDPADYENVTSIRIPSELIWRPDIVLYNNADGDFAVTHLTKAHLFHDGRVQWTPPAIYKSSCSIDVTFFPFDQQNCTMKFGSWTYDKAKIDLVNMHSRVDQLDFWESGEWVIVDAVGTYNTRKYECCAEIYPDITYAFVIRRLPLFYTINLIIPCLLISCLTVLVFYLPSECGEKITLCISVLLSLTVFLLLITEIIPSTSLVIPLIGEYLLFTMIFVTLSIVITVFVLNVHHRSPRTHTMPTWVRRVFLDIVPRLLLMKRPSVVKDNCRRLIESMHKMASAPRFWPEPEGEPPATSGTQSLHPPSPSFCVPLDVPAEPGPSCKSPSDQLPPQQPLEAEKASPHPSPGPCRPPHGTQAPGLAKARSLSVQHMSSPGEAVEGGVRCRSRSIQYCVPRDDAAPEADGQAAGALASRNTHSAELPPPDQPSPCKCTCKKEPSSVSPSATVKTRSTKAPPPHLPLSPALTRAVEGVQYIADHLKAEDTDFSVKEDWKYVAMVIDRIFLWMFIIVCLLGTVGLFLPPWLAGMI
Sequence of 5-hydroxytryptamine receptor 2B (P41595 whole entry): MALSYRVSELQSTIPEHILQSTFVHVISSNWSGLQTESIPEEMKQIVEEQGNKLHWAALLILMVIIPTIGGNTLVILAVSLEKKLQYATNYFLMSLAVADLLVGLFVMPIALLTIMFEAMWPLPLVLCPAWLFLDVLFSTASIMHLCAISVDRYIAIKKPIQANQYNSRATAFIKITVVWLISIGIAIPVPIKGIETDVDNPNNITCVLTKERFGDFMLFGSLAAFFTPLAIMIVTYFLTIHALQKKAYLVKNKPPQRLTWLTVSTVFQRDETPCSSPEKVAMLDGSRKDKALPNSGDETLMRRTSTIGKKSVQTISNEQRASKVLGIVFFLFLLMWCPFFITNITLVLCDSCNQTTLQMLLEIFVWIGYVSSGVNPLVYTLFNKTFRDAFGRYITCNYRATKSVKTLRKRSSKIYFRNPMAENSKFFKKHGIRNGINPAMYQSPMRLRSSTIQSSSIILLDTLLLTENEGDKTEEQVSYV
Sequence of Histamine H2 receptor (P25021 whole entry): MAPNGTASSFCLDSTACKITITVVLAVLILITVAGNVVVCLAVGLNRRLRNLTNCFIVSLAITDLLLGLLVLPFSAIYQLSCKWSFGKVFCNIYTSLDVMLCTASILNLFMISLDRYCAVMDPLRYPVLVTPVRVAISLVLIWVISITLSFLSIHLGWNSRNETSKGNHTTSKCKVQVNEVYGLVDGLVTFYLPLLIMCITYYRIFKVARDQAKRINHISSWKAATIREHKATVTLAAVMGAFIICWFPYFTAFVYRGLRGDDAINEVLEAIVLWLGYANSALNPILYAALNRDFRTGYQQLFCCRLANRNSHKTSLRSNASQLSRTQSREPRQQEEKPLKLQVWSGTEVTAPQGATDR
Sequence of Melanocortin receptor 4 (P32245 whole entry): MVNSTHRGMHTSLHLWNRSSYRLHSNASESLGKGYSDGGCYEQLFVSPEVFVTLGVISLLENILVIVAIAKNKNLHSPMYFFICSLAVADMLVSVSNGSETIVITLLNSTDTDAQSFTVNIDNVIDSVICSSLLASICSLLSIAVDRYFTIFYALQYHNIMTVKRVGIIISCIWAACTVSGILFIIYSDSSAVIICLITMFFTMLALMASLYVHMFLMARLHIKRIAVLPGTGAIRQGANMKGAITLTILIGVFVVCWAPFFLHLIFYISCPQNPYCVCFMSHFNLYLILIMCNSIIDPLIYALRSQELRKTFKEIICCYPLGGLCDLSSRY
Sequence of Cannabinoid receptor 1 (P21554 whole entry): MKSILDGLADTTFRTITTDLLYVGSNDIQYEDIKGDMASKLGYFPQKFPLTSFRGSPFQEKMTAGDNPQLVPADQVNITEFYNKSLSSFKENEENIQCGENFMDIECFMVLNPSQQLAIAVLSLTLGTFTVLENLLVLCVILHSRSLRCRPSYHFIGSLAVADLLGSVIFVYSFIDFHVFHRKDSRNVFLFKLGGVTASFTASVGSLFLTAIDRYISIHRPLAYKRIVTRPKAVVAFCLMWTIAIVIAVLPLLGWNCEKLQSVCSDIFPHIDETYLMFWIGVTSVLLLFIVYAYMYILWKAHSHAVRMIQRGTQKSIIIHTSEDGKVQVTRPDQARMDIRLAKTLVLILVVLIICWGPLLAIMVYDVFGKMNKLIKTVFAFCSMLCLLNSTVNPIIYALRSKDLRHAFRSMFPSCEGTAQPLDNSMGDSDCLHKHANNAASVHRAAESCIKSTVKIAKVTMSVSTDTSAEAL
Sequence of cGMP-inhibited 3',5'-cyclic phosphodiesterase 3A (Q14432 whole entry): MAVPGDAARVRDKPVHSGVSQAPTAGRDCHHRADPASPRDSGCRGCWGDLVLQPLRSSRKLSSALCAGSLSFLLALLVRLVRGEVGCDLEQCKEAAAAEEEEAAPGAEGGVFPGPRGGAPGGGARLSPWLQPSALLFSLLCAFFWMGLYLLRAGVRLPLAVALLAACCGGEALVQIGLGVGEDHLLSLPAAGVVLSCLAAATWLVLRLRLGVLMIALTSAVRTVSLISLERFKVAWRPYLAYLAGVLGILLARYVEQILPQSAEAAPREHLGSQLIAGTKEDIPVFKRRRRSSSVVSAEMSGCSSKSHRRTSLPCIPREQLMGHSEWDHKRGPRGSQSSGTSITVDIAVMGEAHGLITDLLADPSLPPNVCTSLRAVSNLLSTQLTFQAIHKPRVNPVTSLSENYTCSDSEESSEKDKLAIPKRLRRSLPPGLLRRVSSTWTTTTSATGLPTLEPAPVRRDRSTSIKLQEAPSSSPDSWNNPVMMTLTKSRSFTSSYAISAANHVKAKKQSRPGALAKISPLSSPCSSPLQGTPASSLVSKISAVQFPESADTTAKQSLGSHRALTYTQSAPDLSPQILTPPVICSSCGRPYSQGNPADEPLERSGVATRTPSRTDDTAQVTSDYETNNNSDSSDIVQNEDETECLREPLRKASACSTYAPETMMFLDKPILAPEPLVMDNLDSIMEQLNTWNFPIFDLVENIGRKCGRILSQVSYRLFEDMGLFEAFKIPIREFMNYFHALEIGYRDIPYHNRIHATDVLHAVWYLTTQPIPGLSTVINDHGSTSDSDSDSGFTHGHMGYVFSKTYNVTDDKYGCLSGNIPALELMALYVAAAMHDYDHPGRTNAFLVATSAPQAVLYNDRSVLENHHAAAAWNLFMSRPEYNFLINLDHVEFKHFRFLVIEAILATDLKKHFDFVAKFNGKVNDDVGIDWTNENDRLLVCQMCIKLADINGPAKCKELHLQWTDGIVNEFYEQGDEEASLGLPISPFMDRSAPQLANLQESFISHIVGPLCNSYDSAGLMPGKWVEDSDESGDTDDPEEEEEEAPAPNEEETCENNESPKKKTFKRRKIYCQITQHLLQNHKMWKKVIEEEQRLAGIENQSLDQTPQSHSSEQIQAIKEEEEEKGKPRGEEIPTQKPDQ

Compound | AC50 (Melanocortin receptor 4) [µM] | AC50 [1] [µM] | AC50 (Adenosine receptor A1) [µM] | AC50 [2] [µM] | AC50 [3] [µM] | AC50 (Cannabinoid receptor 1) [µM] | AC50 [4] [µM] | AC50 [5] [µM] | AC50 [6] [µM] | AC50 [7] [µM] | AC50 [8] [µM] | AC50 (Histamine H2 receptor) [µM] | AC50 [9] [µM] | AC50 [10] [µM] | AC50 [11] [µM]
CN1C(=O)CN=C(c2ccccc2F)c2cc([N+](=O)[O-])ccc21 [FLUNITRAZEPAM] | > 30 | > 10 | > 30 | > 30 | > 10 | > 30 | > 10 | > 10 | > 10 | > 30 | 29.1 | > 10 | > 30 | > 10 | > 10
CC(=O)[C@@]1(O)CC[C@H]2[C@@H]3C[C@H](C)C4=CC(=O)C=C[C@]4(C)[C@@]3(F)[C@@H](O)C[C@@]21C [FLUOROMETHOLONE] | > 10 | > 10 | > 10 | > 30 | > 10 | > 30 | > 10 | > 10 | > 10 | > 30 | > 10 | > 10 | > 30 | > 10 | > 10
CC1Cc2ccccc2N1NC(=O)c1ccc(Cl)c(S(N)(=O)=O)c1 (stereo not given) [INDAPAMIDE] | > 30 | > 30 | > 30 | > 30 | > 10 | > 30 | > 10 | > 10 | > 10 | > 30 | > 30 | > 10 | > 10 | > 10 | > 10
CN1CCC(=C2c3ccccc3CC(=O)c3sccc32)CC1 [KETOTIFEN] | > 10 | > 10 | > 10 | 2.3 | > 10 | 16 | > 10 | > 10 | > 10 | > 30 | > 10 | > 10 | > 30 | > 10 | 10.4
O=C(C[S+]([O-])Cc1ccco1)NC/C=C\COc1cc(CN2CCCCC2)ccn1 (stereo not given) [LAFUTIDINE] | > 10 | > 10 | > 10 | > 30 | > 10 | > 30 | > 10 | > 10 | > 10 | > 30 | > 10 | > 10 | > 30 | > 10 | > 10
CC(C)(C)NCC(O)COc1cccc2c1CC(O)C(O)C2 (stereo not given) [NADOLOL] | > 10 | > 10 | > 10 | > 30 | > 10 | > 30 | > 10 | > 10 | > 10 | > 30 | > 10 | > 10 | > 30 | > 10 | > 10
CC1NCCOC1c1ccccc1 (stereo not given) [PHENMETRAZINE] | > 30 | 25.6 | > 30 | > 30 | > 10 | > 30 | > 10 | > 10 | > 10 | 14 | > 30 | > 10 | > 30 | > 10 | > 10
CC(C)(N)Cc1ccccc1 [PHENTERMINE] | > 30 | > 30 | > 30 | > 30 | > 10 | > 30 | > 10 | > 10 | > 10 | > 30 | > 30 | > 10 | > 30 | > 10 | > 10
CC(C(=O)O)c1ccc(C(=O)c2ccccc2)s1 (stereo not given) [TIAPROFENIC ACID] | > 10 | > 10 | > 10 | > 30 | > 10 | > 30 | 18 | > 10 | > 10 | > 30 | > 10 | > 10 | > 30 | > 10 | 10
CCN(C(C)=O)c1cccc(-c2ccnc3c(C#N)cnn23)c1 [ZALEPLON] | > 30 | > 30 | > 30 | > 30 | > 10 | > 30 | > 10 | > 10 | > 10 | > 30 | > 30 | > 10 | 10 | > 30 | > 10
TEPRENONE | > 30 | > 30 | > 30 | > 30 | > 10 | > 30 | > 10 | > 10 | > 10 | > 30 | > 30 | > 10 | > 30 | > 10 | > 10
